Patent publication US20100048545A1, “Compounds and Compositions for Use in the Prevention and Treatment of Disorders of Fat Metabolism and Obesity” (INNODIA INC., priority 2006, published 2010)
Entries after “also recorded” stand apart in the source; their conditions may differ. Structures can show the parent of a compound that is named as a salt.

Key:
[1] = tested on: Diet-Induced Obesity (DIO) mouse model; assay: Compound 13e on body weight gain in the Diet-Induced Obesity (DIO) mouse model, 21 days; type: in vivo, C57BL/6 mice
Procedure: The objective of this study was to determine the effect of one analog according to the invention, namely Compound 13e, on body weight gain in the Diet-Induced Obesity (DIO) mouse model.
C57BL/6 mice were received at 7-8 weeks of age and fed a high fat diet (60% of calories from fat) for 8 weeks. Fasted glycemia and body weight values were used to randomize the mice into control and treatment groups (n=8). The average basal glycemia was between 213 and 215 mg/dL for all groups. The animals were treated twice daily by oral gavage with Compound 13e (25 or 50 mg per kg of body weight), and the control group received vehicle (200 mM bicarbonate buffer/0.1% Tween-20™, pH=9) alone. The animals were treated for 21 days. Body weight of the mice was measured on a frequent basis during the treatment. At the end of the study, the epididymal fat pads were isolated and weighed. Data are expressed as mean±SEM of body weight and mean±SEM of fat pad weight.

obese mice = assay: Compound 22 and 4-hydroxyisoleucine on weight gain of obese mice, 21 days; type: in vivo, C57BL/6 mice
Procedure: The objective of the following study was to evaluate the effect of the lactone form of 4-hydroxyisoleucine (compound 22) on the weight gain of obese mice. 40 C57BL/6 mice were fed a high fat diet (60% of calories from fat) for 6 weeks in order to induce obesity. Animals were than randomized to 5 study groups of 8 mice each according to their body weight values. Thereafter, the animals were treated orally twice daily with either the water vehicle, 50 mg/kg of compound 22, 100 mg/kg of compound 22, 50 mg/kg of 4-hydroxyisoleucine or 100 mg/kg of 4-hydroxyisoleucine. The treatment lasted 21 days and body weight of mice were determined daily from day 1 to day 21 of the study.

DIO-mice = tested on: DIO-mice
Excerpt: The objective of this study was to evaluate the effect of chronic administration of 4-hydroxyisoleucine (4-OH, compound 14a) and Rosiglitazone, administered alone or in combination, on food consumption and body weight gain of DIO-mice. Both parameters were monitored for 1 week prior to the commencement of treatment, then for the 28 days of treatment and for an additional 7 days post-treatment.
A total of 72 animals were used in the study. The animals were distributed into 6 groups (5 treated, 1 control group, all on high fat diet). Each group was composed of 12 animals. The mice were randomized according to body weight and basal glycemia values following a 5±0.5 hour fasting period.
For the four weeks of treatment, the test articles were dissolved in reverse osmosis water. 4-Hydroxyisoleucine was aliquoted and kept at 4° C. (administration to groups 2, 3, and 6), while Rosiglitazone was freshly prepared daily and kept at 4° C. between the AM and PM administration to groups 4, 5, and 6. Control animals received reverse osmosis water twice daily (group 1). Mice from groups 2 and 3 were treated twice daily with 4-OH at 50 and 100 mg/kg, respectively. Animals from groups 4 and 5 received 1.5 and 5 mg/kg of Rosiglitazone, respectively. […] All groups were treated by oral gavage. Treatment commenced on Day 0 and ended on Day 28 (FIGS. 18A and 18C.
Food consumption was measured and averaged on a weekly basis beginning one week before the start of treatment as shown in FIGS. 18B and 18D as week −1. Similarly, food consumption was monitored for one week after treatment was stopped and is shown as week 5 in FIGS. 18B and 18D, In FIG. 18B, the food consumption over time for various treatment groups is illustrated by the bar graph.

[2] = tested on: C57BL/6 mice fed a high fat diet; assay: Analogs and isomers of 4-hydroxyisoleucine on body weight gain in C57BL/6 mice fed a high fat diet, 3 days; type: in vivo; conditions: for body weight gain induced by the high fat diet: 100 mg/kg twice daily oral gavage; for efficacy relative to compound 14a: 100 mg/kg twice daily
Procedure: C57BL/6 mice were received at 6-7 weeks of age and fed a standard commercial chow for 1 week (acclimation period). The animals were randomized based on their body weight values, into control and treatment groups (n=6). Then, animals were shifted to a high fat diet (60% of calories from fat) and treated twice daily by oral gavage with 4-hydroxyisoleucine (4-OH, compound 14a) or different analogs and isomers of 4-OH at the dose of 100 mg per kg of body weight for 3 days. The control group (Control HFD) received vehicle (water) alone and a group was kept under standard chow (Control Lean). Body weight of the mice was recorded daily. Two different experiments were run and the effect on body weight gain of selected analogs and isomers according to the invention is presented in FIG. 30A (Experiment 1) and FIG. 30B (Experiment 2).

3T3-L1 pre-adipocytes = assay: Lipid accumulation in 3T3-L1 adipocytes (Oil red O, OD 490 nm); type: cell-based; conditions: 7 days in differentiation medium, compared to controls
Excerpt: The objective of the study was to evaluate if the compounds of the present invention, and more particularly analogs of 4-Hydroxyisoleucine, can decrease the accumulation of lipids in pre-adipocytes induced to differentiate into functional adipocytes. […] Treating the fibroblasts with a differentiation medium containing insulin, dexamethasone and […] (IBMX) in the presence of serum induces these cells to become terminally differentiated adipocytes. These cells convert to spherical shape and accumulate lipid droplets.
3T3-L1 were cultured in presence of DMEM and 10% FBS for a week in 6-well plates. The medium was than changed to induce differentiation of cells into mature adipocytes. The medium consisted of DMEM, 10% FBS, 0.5 mM IBMX, 0.01 mg/ml insulin and 0.1 μM dexamethasone, with or without compounds of the present invention. The cells were cultured for 7 days and then stained with Oil red 0, a dye which specifically stain lipids. The fat content of treated and untreated cells was quantified by measuring the optical density (OD, 490 nm) with a spectrophotometer.

[3] = tested on: Diet Induced Obesity (DIO)-Mice; type: in vivo
Procedure: A total of 40 animals were used in the study. The animals were distributed into 5 groups (4 treated, 1 control group, all on high fat diet). Each group was composed of 8 animals.
4-OH was aliquoted and kept at 4° C. […] Mice from groups 4 and 5 were treated twice daily with 50 and 100 mg/kg of compound 65a. All groups were treated by oral gavage. Treatment commenced on Day 0 and ended on Day 7 (FIG. 37A). Body weights were measured daily.

N[C@H](C(=O)O)[C@@H]1CCCC[C@H]1O [Compound 13e, (S)-2-amino-2-((1S,2R)-2-hydroxycyclohexyl)acetic acid]
epididymal fat pad weight ([1]; 25 or 50 mg/kg twice daily): reduction of epididymal fat pad weight
body weight gain (delta of body weight from Day 0) ([1]; 25 or 50 mg/kg twice daily oral gavage): reduction of body weight; also recorded: reduction in body weight gain compared to vehicle treated mice and this effect was dose-dependent

CC1C(O)CN[C@@H]1C(=O)O (stereo partly shown) [Compound 22]
body weight (obese mice; 100 mg/kg orally twice daily, 21 days, vs water control, p<0.01): significant reduction of body weight compared to the water control group
white fat mass (epididymal fat) (obese mice; 100 mg/kg, end of treatment, p<0.01): loss of the white fat mass (epididymal fat)
weight loss relative to 4-hydroxyisoleucine (obese mice; same dose level of 100 mg/kg, p<0.05): significantly greater than the weight loss caused by 4-hydroxyisoleucine

CN(CCOc1ccc(CC2SC(=O)NC2=O)cc1)c1ccccn1 (stereo not shown) [Rosiglitazone, reference compound]
food consumption (DIO-mice; Rosiglitazone 1.5 mg/kg alone): increase in food consumption
weight (DIO-mice; Rosiglitazone alone, relative to the other groups): significant increase in weight relative to the other groups

C[C@H]([C@@H](C)O)[C@@H](N)C(=O)O [Compound 14aa, (2R,3S,4R)-4-Hydroxyisoleucine]
body weight gain induced by the high fat diet [2]: reduced body weight gain induced by the high fat diet

CC(=O)N[C@@H]1C(=O)O[C@@H](C)[C@@H]1C [Compound 104]
body weight gain induced by the high fat diet [2]: reduced body weight gain induced by the high fat diet

COC(=O)[C@@H]1C[C@H](O)CN1 [Compound 76, cis-4-hydroxyproline methyl ester HCl salt]
lipid accumulation (3T3-L1 pre-adipocytes; HCl salt): dose-dependently decreased the lipid accumulation; also recorded: decrease of accumulation of lipids
body weight gain induced by the high fat diet [2]: reduced body weight gain induced by the high fat diet

CC(C)(C)C(O)CC(N)C(=O)O (stereo not shown) [Compound 62, 2-amino-4-hydroxy-5,5-dimethyl-hexanoic acid]
lipid accumulation (3T3-L1 pre-adipocytes): dose-dependently decreased the lipid accumulation; also recorded: decrease of accumulation of lipids
efficacy relative to compound 14a [2]: greater efficacy than the SRS isomer of 4-OH
body weight gain induced by the high fat diet [2]: reduced body weight gain induced by the high fat diet

O=C(O)[C@@H]1C[C@H](O)CN1 [Compound 75, cis-4-hydroxyproline]
lipid accumulation (3T3-L1 pre-adipocytes): dose-dependently decreased the lipid accumulation; also recorded: decrease of accumulation of lipids
body weight gain induced by the high fat diet [2]: reduced body weight gain induced by the high fat diet

CC1(O)CC(C(=O)O)NCC1O (stereo not shown) [Compound 65a, 4-methyl-4,5-dihydroxypipecolic acid]
tolerability of treatment ([3]; 50 and 100 mg/kg twice daily oral gavage, one week): well tolerated
weight gain ([3]; 50 and 100 mg/kg twice daily, first week of treatment): moderation of weight gain was observed
food consumption ([3]; first week of treatment): slight decrease in food consumption
efficacy relative to compound 14a [2]: greater efficacy than the SRS isomer of 4-OH
body weight gain induced by the high fat diet [2]: reduced body weight gain induced by the high fat diet

COC(=O)[C@H]1C[C@@H](O)CN1 [Compound 202]
body weight gain induced by the high fat diet [2]: reduced body weight gain induced by the high fat diet
